PMC10223552 (Pharmaceuticals, 2023)
Where “and” joins values, the source holds several entries; their conditions need not be identical. Identical values can stand only once.

What was measured:
eeAChE = molecular target: T1, eeAChE (Electrophorus electricus, UniProt O42275); assay: biochemical; design: species or system electric eel; conditions: 10 µM; read-out: eeAChE % inh. (10 µM) ± SD
T1 construct: purchased Sigma–Aldrich (Steinheim, Germany)

eqBuChE = eqBuChE (Equus caballus, UniProt P81908); assay: biochemical; conditions: for inhibition at 10 µM: read-out: eqBuChE % inh. (10 µM) ± SD; for IC50: read-out: eqBuChE IC50 ± sem
Chain of eqBuChE (P81908 whole entry): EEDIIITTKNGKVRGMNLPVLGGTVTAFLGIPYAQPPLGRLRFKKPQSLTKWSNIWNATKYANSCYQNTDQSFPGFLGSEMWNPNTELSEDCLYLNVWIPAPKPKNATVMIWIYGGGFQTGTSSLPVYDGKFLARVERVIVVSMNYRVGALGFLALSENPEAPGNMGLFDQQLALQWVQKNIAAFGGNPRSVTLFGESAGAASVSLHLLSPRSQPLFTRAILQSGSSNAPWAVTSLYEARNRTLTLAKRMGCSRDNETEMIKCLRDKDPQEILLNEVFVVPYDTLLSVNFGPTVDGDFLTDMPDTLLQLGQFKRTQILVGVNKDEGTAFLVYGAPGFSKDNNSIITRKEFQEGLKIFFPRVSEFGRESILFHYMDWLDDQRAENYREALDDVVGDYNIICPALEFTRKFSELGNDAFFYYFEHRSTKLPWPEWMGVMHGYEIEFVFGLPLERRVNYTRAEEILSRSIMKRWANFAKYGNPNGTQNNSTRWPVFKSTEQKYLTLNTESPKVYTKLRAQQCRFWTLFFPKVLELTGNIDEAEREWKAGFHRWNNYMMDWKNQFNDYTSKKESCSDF

[1] = tested on: MCF-7 breast cancer cells; assay: cells; assay type: cell-based; conditions: for IC50: Homo sapiens, MCF7, 48 h, read-out: MTT IC50 MCF-7
Method: (§1) The cell lines were obtained from American Type Culture Collection (ATCC, Manassas, VA, USA) and were cultured at 37 °C in the presence of 5% CO2 in the atmosphere. […] The cell’s morphology was examined under a Nikon Eclipse Ti inverted phase contrast microscope (Nikon, Tokyo, Japan). The authenticity of tested cell lines was verified by short tandem repeat (STR) genotyping in the Department of Forensic Medicine (Medical University of Lublin, Lublin, Poland).
(§2) Cell viability based on metabolic activity was evaluated with the MTT colorimetric test based on the ability of viable cells to cause the transformation of tetrazolium salts MTT (3-[4,5-dimethylthiazol-2-yl]-2,5)diphenyltetrazolium bromide) into purple formazan, by cellular dehydrogenases. The cells were seeded into 96-well plates at a concentration of 2 × 10^5 cells/mL. […] Doxorubicin was used for comparison as the standard chemotherapeutic agent used in breast cancer treatment. After 48 h of incubation cell cultures were supplemented with 20 µL of 5 mg/mL MTT (Thermofisher, Waltham, MA, USA) stock in PBS (Corning, NY, USA), and the incubation was continued for 4 h at 37 °C. Next, the medium with MTT was removed, and obtained crystals were dissolved in 200 µL of DMSO (dimethyl sulfoxide, Avantor, Gliwice, Poland). The solution absorbency was measured at 570 nm, using a PowerWave™ xs microplate spectrophotometer (BioTek Instruments, Winooski, VT, USA). The experiment was performed three times with three replicates for each concentration of tested compounds.

[2] = tested on: MDA-MB-231 breast cancer cells; assay: cells; assay type: cell-based; conditions: Homo sapiens, MDA-MB-231, 48 h, read-out: MTT IC50 MDA-MB-231
Method: as §1, §2

[3] = tested on: BJ normal skin fibroblast; assay: MTT cytotoxicity test, BJ normal fibroblasts; assay type: cell-based; conditions: Homo sapiens, 48 h treatment
Method: The studies were conducted on two breast cancer cell lines—MCF-7 (ER+PR+/HER2-negative) and MDA-MB-231 (ER/PR/HER2-negative) and human normal fibroblast cell line BJ. The cell lines were obtained from American Type Culture Collection (ATCC, Manassas, VA, USA) and were cultured at 37 °C in the presence of 5% CO2 in the atmosphere. The culture media (Eagle’s Minimum Essential Medium for MCF-7 and BJ, Leibovitz’s L-15 Medium for MDA-MB-231, Corning, NY, USA), was supplemented with 10% fetal bovine serum. The cell’s morphology was examined under a Nikon Eclipse Ti inverted phase contrast microscope (Nikon, Tokyo, Japan). The authenticity of tested cell lines was verified by short tandem repeat (STR) genotyping in the Department of Forensic Medicine (Medical University of Lublin, Lublin, Poland).
Cell viability based on metabolic activity was evaluated with the MTT colorimetric test based on the ability of viable cells to cause the transformation of tetrazolium salts MTT (3-[4,5-dimethylthiazol-2-yl]-2,5)diphenyltetrazolium bromide) into purple formazan, by cellular dehydrogenases. The cells were seeded into 96-well plates at a concentration of 2 × 10^5 cells/mL. Once 70–80% confluency was reached, tested compounds were added: ADS10310 and ADS1017 in concentrations ranging from 1 to 250 µM or DMSO as the vehicle in control cultures for the next 48 h (max. DMSO concentration <0.5%). Doxorubicin was used for comparison as the standard chemotherapeutic agent used in breast cancer treatment. After 48 h of incubation cell cultures were supplemented with 20 µL of 5 mg/mL MTT (Thermofisher, Waltham, MA, USA) stock in PBS (Corning, NY, USA), and the incubation was continued for 4 h at 37 °C. […] The solution absorbency was measured at 570 nm, using a PowerWave™ xs microplate spectrophotometer (BioTek Instruments, Winooski, VT, USA). […] IC50 values were determined using the AAT Bioquest IC50 calculator (AAT Bioquest, Inc. Quest Graph™ EC50 Calculator. https://www.aatbio.com/tools/ec50-calculator) (accessed on 6 September 2022).

[4] = tested on: MDA-MB-231 breast cancer cells; assay: Apoptosis/necrosis detection (Annexin V-FITC/PI, image cytometry), MDA-MB-231; assay type: cell-based, human; conditions: 48 h
Method: The MTT test results prompted further study. Staining with propidium iodide and Annexin V-FITC was performed to distinguish apoptotic from necrotic cell death.
Apoptosis was analyzed using the NucleoCounter® NC-3000™ (Chemometec Inc., Lillerød, Denmark) according to the manufacturer’s protocol using Annexin V from Biotium (Fremont, CA, USA). MCF-7 and MDA-MB-231 cells were seeded into 6-well plates (2 × 10^5 cells/mL) and cultured until 70–80% confluence was reached. […] Scatter plots were used to determine the proportion of healthy cells (Annexin V-negative/PI-negative cells), early apoptotic cells (Annexin V-positive/PI-negative cells), late apoptotic cells (Annexin V-positive/PI-positive cells), and necrotic cells (Annexin V-negative/PI-positive cells). Data were derived from three independent experiments with three replicates.

T1 sequence (O42275 24-633): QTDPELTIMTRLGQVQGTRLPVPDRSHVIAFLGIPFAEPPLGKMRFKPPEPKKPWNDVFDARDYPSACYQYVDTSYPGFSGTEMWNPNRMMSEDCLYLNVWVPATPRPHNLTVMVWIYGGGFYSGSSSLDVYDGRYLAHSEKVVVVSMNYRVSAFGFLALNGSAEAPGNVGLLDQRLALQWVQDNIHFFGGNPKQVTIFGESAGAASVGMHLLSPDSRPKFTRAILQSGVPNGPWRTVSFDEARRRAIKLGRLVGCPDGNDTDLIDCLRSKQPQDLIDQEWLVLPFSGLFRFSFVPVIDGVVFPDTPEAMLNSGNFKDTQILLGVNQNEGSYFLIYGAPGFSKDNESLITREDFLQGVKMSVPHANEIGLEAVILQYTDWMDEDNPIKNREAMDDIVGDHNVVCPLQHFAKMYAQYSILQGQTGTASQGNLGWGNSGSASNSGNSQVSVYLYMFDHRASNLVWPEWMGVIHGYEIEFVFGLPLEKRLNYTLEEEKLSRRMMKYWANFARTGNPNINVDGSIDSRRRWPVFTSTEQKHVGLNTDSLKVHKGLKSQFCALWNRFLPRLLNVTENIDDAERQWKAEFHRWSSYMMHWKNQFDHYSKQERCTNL

With `N=C(N)N(CCCCN1CCN(CCCCCCCOc2ccccc2)CC1)Cc1ccccc1` [ADS1017] the inhibition at 10 µM (eeAChE) was 49.7 ± 0.7%, the inhibition at 10 µM (eqBuChE) was 70.8 ± 0.6% and the IC50 (eqBuChE) was 5.1 ± 0.1 µM. The IC50 [1] was 24.7 µM, the IC50 [2] was 19.9 µM and the IC50 [3] was 39 µM. The “early apoptotic cells (Q1lr)” value ([4]; MDA-MB-231, IC50 concentration) was 22% and the “late apoptotic cells (Q1ur)” value ([4]; MDA-MB-231, IC50 concentration) was 39%.
In the case of `Cl.Cl.N=C(NCCCCc1ccc(Cl)cc1)NCCCCN1CCCCC1` [ADS10310], the inhibition at 10 µM (eeAChE) is reported as 7.3 ± 0.9%, the inhibition at 10 µM (eqBuChE) is reported as 83.9 ± 0.1% and the IC50 (eqBuChE) is reported as 1.7 ± 0.1 µM. For the same compound, the IC50 [1] was 82.9 µM, the “Cell viability (%) ± SD, MCF-7” value ([1]; MTT, 48 h, concentrations among 10-125 μM, column of each value cannot be told) was 79.57±1.33% and 60.51±1.86% and 57.12±1.54% and 44.21±3.24% and 39.79±2.76% and the IC50 [2] was 115 µM. The IC50 [3] was 231 µM and the “mode of cell death (in words)” value ([4]; both breast cancer lines, IC50 concentration) was “mainly late apoptotic cells”.
